Test [1] concerns the target T1, Tyro-3 (h) (Homo sapiens, UniProt Q06418).
T1 sequence (Q06418 41-890): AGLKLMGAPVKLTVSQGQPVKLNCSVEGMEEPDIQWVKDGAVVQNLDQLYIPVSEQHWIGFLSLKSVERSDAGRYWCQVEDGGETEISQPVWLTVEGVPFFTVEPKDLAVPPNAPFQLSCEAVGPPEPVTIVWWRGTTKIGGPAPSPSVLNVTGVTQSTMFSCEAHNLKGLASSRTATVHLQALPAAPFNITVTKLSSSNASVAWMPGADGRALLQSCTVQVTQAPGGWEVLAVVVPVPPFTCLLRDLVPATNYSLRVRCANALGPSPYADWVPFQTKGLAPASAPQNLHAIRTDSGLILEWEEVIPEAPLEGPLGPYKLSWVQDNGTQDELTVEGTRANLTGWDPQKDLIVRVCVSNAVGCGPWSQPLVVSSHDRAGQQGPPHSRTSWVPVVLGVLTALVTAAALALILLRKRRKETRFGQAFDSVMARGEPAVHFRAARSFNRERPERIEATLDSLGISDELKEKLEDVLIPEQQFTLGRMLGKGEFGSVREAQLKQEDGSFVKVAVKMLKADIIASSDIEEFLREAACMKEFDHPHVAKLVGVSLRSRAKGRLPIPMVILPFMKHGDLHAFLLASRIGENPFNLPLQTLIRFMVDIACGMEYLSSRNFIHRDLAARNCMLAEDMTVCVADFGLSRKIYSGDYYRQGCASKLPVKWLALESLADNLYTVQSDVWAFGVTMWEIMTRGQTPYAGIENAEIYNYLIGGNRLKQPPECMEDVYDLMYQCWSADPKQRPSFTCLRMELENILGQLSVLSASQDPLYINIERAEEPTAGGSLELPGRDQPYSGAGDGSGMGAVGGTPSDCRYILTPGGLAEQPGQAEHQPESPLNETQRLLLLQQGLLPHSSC
The test is described as follows: Enzymatic activity assay, Tyro-3 (h), [γ-33P]-ATP filter assay. In kind it is biochemical. As to conditions: 10 μM ATP, 40 min room temperature; read-out: Inhibitory activity IC50 Tyro-3(h). The procedure:
(§1) Compounds were each dissolved in 100% DMSO to prepare stock solutions with a maximum concentration of 500 μM.
(§2) Compound working solutions (50×) were prepared by diluting a compound stock solution to a final concentration of 500, 150, 50, 15, 5, 1.5, 0.5, 0.15 and 0.05 μM.
An enzyme solution with a final concentration of 38 nM was prepared by dissolving Tyro3 (h) enzyme in a mixture of 8 mM MOPS (pH 7.0), 0.2 mM EDTA, 1 mM MnCl2 and 250 μM KVEKIGEGTYGVVYK. A Mg/ATP mixture of 10 mM magnesium acetate and 10 μM [γ-^33P]-ATP was used to activate the enzymatic reaction.
(§3) A compound working solution was added to a 384-well plate, with final concentrations of 10,000, 3,000, 1,000, 300, 100, 30, 10, 3 and 1 nM, and then different enzymatic reaction solutions prepared according to the above conditions were added. The reaction solutions were incubated at room temperature for 40 min, and then 0.5% phosphoric acid solutions were added to terminate the reaction. 10 μL of the reaction solution was added dropwise to P30 filter paper, washed 4 times with a 0.425% phosphoric acid solution and once with methanol, and then placed in a scintillation counter for detection. Gray analysis was performed on the results with Image J software, and IC50 values were calculated with GraphPad 5.0 software.

Test [2] addresses CSF1R (h) (Homo sapiens, UniProt P07333). As to the kind of experiment: Enzymatic activity assay, CSF1R (h), [γ-33P]-ATP filter assay. Format: biochemical. The conditions noted are these: 10 μM ATP, 40 min room temperature; read-out: Inhibitory activity IC50 CSF1R(h). The procedure:
as §1, §2
An enzyme solution with a final concentration of 64 nM was prepared by dissolving CSF1R enzyme in a mixture of 8 mM MOPS (pH 7.0), 0.2 mM EDTA and 250 μM KKSRGDYMTMQIG. A Mg/ATP mixture of 10 mM magnesium acetate and 10 μM [γ-^33P]-ATP was used to activate the enzymatic reaction.
as §3

Test [3] addresses T2, MDA-MB-231 cell pAxl (Homo sapiens, UniProt P30530).
T2 construct: endogenous in cells; host or cells: MDA-MB-231
T2 sequence (P30530 26-894): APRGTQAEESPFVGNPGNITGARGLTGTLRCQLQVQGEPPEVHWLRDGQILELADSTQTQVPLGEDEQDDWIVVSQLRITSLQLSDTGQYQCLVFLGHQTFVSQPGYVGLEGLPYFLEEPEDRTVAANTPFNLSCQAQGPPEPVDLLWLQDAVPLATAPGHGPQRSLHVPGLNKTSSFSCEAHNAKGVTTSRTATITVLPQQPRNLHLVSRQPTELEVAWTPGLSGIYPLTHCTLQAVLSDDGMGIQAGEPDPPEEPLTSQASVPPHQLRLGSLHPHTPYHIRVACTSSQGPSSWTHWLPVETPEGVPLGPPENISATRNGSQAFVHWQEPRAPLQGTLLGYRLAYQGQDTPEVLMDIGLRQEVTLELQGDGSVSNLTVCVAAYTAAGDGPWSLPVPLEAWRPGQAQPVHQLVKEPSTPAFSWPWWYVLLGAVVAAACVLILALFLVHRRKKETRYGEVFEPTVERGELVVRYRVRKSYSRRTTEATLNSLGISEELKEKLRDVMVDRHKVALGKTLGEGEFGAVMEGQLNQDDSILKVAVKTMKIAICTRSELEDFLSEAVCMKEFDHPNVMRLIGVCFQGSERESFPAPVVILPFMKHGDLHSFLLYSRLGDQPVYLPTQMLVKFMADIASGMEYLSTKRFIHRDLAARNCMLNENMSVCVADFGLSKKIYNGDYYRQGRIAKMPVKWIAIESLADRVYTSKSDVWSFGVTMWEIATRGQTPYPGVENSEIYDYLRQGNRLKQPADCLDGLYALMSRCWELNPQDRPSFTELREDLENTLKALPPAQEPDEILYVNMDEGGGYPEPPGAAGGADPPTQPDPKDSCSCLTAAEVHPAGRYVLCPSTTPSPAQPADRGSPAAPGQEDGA
The test is described as follows: Inhibitory activity on cell pAxl, MDA-MB-231 cells, hGAS6 stimulation, Western Blot. In kind it is cell-based. As to conditions: hGAS6 200 ng/mL. Here is the method:
MDA-MB-231 is a breast cancer cell.
MDA-MB-231 cells were inoculated to a 6-well plate (containing 10% FBS DMEM medium, […] cells per well) and adherently cultivated at 37° C., and 5% CO2 for 18 hrs. The cells were starved overnight, and then compound solutions with different concentrations were added. Compounds 1 and 2 had final concentrations of 1.1, 3.3 and 10 nM, and the remaining compounds had final concentrations of 1.1, 3.3, 10 and 30 nM. […] There was a medium containing 1‰DMSO in the negative control well. The cells were incubated at 37° C., and 5% CO2 for 60 min, and then hGAS6 (R&D, final concentration: 200 ng/mL) was added to each well. The cells were further incubated for 60 min, and then the total protein of the cells was extracted for Western Blot experiment. Gray analysis was performed on the results with Image J software, and IC50 values were calculated with GraphPad 5.0 software. The inhibitory activities of the compounds on cell pAxl were detected.

pIC50: −log10 of the molar value. Where only a bound is given, the exact number is not on record here.

Chain of CSF1R (h) (P07333 20-972): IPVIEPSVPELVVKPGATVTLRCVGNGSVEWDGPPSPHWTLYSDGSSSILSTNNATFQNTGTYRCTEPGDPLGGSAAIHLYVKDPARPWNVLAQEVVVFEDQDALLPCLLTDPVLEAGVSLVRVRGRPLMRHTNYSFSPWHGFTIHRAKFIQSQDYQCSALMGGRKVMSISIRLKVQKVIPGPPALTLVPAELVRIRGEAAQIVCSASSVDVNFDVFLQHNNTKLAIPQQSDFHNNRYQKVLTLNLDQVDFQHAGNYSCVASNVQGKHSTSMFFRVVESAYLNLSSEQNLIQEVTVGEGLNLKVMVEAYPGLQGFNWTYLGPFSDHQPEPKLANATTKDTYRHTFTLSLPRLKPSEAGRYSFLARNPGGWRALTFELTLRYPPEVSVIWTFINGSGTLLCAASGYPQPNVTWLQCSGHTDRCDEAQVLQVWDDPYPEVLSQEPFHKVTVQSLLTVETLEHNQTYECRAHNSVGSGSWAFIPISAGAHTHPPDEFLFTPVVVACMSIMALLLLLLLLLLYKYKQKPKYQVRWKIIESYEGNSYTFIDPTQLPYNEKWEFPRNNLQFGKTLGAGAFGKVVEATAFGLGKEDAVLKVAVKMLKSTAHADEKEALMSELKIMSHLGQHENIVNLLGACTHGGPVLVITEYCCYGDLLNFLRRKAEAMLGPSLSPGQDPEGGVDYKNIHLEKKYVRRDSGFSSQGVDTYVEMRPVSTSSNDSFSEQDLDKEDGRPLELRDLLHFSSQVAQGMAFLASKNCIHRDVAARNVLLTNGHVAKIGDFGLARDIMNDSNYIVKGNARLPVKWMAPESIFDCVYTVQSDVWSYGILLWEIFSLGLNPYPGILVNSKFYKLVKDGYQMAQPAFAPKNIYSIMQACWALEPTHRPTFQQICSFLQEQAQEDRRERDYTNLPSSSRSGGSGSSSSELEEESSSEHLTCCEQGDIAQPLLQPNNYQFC

Turning to `COc1cc2nccc(Oc3ccc(NC(=O)c4cc(CC5CCOCC5)cn(-c5ccc(C)cc5)c4=O)nc3)c2cc1OC` [Compound 26, N-(5-((6,7-dimethoxyquinolin-4-yl)oxy)pyridin-2-yl)-oxo-5-((tetrahydro-2H-pyran-4-yl)methyl)-1-(p-tolyl)-1,2-dihydropyridin-3-carboxamide], the pIC50 in test [1] is 7.32; in test [2] it was greater than 6.70; in test [3] it was greater than 8.48.
Turning to `COc1cc2nccc(Oc3ccc(NC(=O)c4nn(C5CCOCC5)cc(-c5ccc(C)cc5)c4=O)nc3)c2cc1OC` [Compound 17, N-(5-((6,7-dimethoxyquinolin-4-yl)oxy)pyridin-2-yl)-4-oxo-1-(tetrahydro-2H-pyran-4-yl)-5-(p-tolyl)-1,4-dihydropyridazin-3-carboxamide], the pIC50 in test [1] is 7.85; in test [2] it was greater than 6.70; in test [3], greater than 8.96.
For `COc1cc2nccc(Oc3cnc(NC(=O)c4cn(C5CCOCC5)cc(-c5ccc(C)cc5)c4=O)nc3)c2cc1OC` [Compound 20, N-(5-((6,7-dimethoxyquinolin-4-yl)oxy)pyrimidin-2-yl)-4-oxo-1-(tetrahydro-2H-pyran-4-yl)-5-(p-tolyl)-1,4-dihydropyridin-3-carboxamide], the pIC50 in test [1] is 7.08; in test [2], greater than 6.70; in test [3] it was greater than 8.00.
As for `COc1cc2nccc(Oc3cnc(NC(=O)c4cn(C5CCOCC5)cc(-c5ccc(F)cc5)c4=O)nc3)c2cc1OC` [Compound 31, N-(5-((6,7-dimethoxyquinolin-4-yl)oxy)pyrimidin-2-yl)-5-(4-fluorophenyl)-4-oxo-1-(tetrahydro-2H-pyran-4-yl)-1,4-dihydropyridin-3-carboxamide], the pIC50 in test [1] was 7.11; in test [2], greater than 6.70.
On to `COc1cc2nccc(Oc3cnc(NC(=O)c4cn(CC5CCOCC5)cc(-c5ccc(C)cc5)c4=O)nc3)c2cc1OC` [Compound 4, N-(5-((6,7-dimethoxyquinolin-4-yl)oxy)pyrimidin-2-yl)-4-oxo-1-((tetrahydro-2H-pyran-4-yl)methyl)-5-(p-tolyl)-1,4-dihydropyridin-3-carboxamide], for which the pIC50 is 6.75 in test [1], greater than 6.70 in test [2] and greater than 8.96 in test [3].
Regarding `COc1cc2nccc(Oc3cnc(NC(=O)c4nn(C5CCOCC5)cc(-c5ccc(F)cc5)c4=O)nc3)c2cc1OC` [Compound 33, N-(5-((6,7-dimethoxyquinolin-4-yl)oxy)pyrimidin-2-yl)-5-(4-fluorophenyl)-4-oxo-1-(tetrahydro-2H-pyran-4-yl)-1,4-dihydropyridazin-3-carboxamide], the figures for the pIC50 in test [1] and in test [2] were 7.64 and greater than 6.70, respectively.
`COc1cc2nccc(Oc3cnc(NC(=O)c4nn(C5CCOCC5)cc(-c5ccc(C)cc5)c4=O)nc3)c2cc1OC` [Compound 18, N-(5-((6,7-dimethoxyquinolin-4-yl)oxy)pyrimidin-2-yl)-4-oxo-1-(tetrahydro-2H-pyran-4-yl)-5-(p-tolyl)-1,4-dihydropyridazin-3-carboxamide]: the pIC50 was 7.24 in test [1], greater than 6.70 in test [2] and greater than 8.96 in test [3].
In the same order, the values of `COc1cc2nccc(Oc3ccc(NC(=O)c4nn(CC5CCOCC5)cc(-c5ccc(C)cc5)c4=O)nc3)c2cc1OC` [Compound 2, N-(5-((6,7-dimethoxyquinolin-4-yl)oxy)pyridin-2-yl)-4-oxo-1-((tetrahydro-2H-pyran-4-yl)methyl)-5-(p-tolyl)-1,4-dihydropyridazin-3-carboxamide] are 7.89, greater than 6.70 and greater than 8.96.
Turning to `COc1cc2nccc(Oc3ccc(NC(=O)c4cc(CC5CCOCC5)cn(-c5ccc(F)cc5)c4=O)nc3)c2cc1OC` [Compound 32, N-(5-((6,7-dimethoxyquinolin-4-yl)oxy)pyridin-2-yl)-1-(4-fluorophenyl)-2-oxo-5-((tetrahydro-2H-pyran-4-yl)methy 1)-1,2-dihydropyridin-3-carboxamide], the results for the pIC50 in test [1] and in test [2] were 7.46 and greater than 6.70, respectively.
Consider `COc1cc2nccc(Oc3cnc(NC(=O)c4nn(CC5CCOCC5)cc(-c5ccc(C)cc5)c4=O)nc3)c2cc1OC` [Compound 16, N-(5-((6,7-dimethoxyquinolin-4-yl)oxy)pyrimidin-2-yl)-4-oxo-1-((tetrahydro-2H-pyran-4-yl)methyl)-5-(p-tolyl)-1,4-dihydropyridazin-3-carboxamide], for which the pIC50 in test [1] was 7.64; in test [2], greater than 6.70; in test [3], greater than 8.96.

The record behind these values is patent US20210177828A1, “TAM FAMILY KINASE /AND CSF1R KINASE INHIBITOR AND USE THEREOF” (Nanjing Transthera Biosciences Co., Ltd., priority 2018, published 2021).
